{"source": "patent US7041808B2", "about": "(priority 2001, dated 2006)", "assay_type_in_all_cases": "cell-based", "key": {"Rhizoctonia solani": {"tested_on": "Rhizoctonia solani", "assay": "Anti-filamentous fungal activity, inhibitory circle on agar plate", "details": "1 μl sample spotted, culture 24 hours at 25° C.", "experimental": "Rhizoctonia solani microorganisms were cultured in a potato dextrose (PD) medium (Difco) at 25° C. for 5 days, and then their hyphae were cut thin with a homogenizer. From the resulting suspension of thin hyphae, a clump of hyphae was removed, and the hyphae were recovered by centrifugation and adjusted to a density of 10^5 hyphae/ml with PD medium. A PDA medium was added in a solution form to 250 μl hypha suspension to form 5 ml suspension which was then spread on a Petri dish (diameter, 8.4 cm). After the medium was solidified, 1 μl sample for activity evaluation was spotted thereon followed by culture for 24 hours at 25° C., and the size of an inhibitory circle formed around the spot was measured.\nThe above-described method of evaluating anti-Rhizoctonia solani activity was used to evaluate the activity of the 4 synthetic proteins."}, "Pyricularia oryzae": {"tested_on": "Pyricularia oryzae", "details": "50 μg protein spotted"}, "Rhizoctonia solani Kuhn": {"tested_on": "Rhizoctonia solani Kuhn"}, "Septoria tritici": {"tested_on": "Septoria tritici"}, "Phytophthora infestance": {"tested_on": "Phytophthora infestance", "details": "V8 juice medium, 20° C., 50 μg protein spotted"}, "Staphylococcus aureus": {"tested_on": "Staphylococcus aureus"}, "Escherichia coli": {"tested_on": "Escherichia coli"}}, "note": "Bridges are numbered along the chain shown (N, C = ends). Where no end group is shown, it is not given here.", "data": [{"substance": "SP4080: protein consisting of 36 amino acid residues, SEQ ID NO:7, from Coconut rhinoceros beetle; chemically synthesized with disulfide linkages (ELPKLPDDKVLIRSRSNCPKGKVWNGFDCKSPFAFS; disulfide 18-29 (inferred))", "values": [{"measurement": "Inhibitory circle", "setting": "Rhizoctonia solani", "result": "⊚ (Inhibitory circle of 4 mm or more)"}, {"measurement": "Inhibitory circle", "setting": "Pyricularia oryzae", "result": "◯ (Inhibitory circle of less than 4 mm)"}, {"measurement": "Inhibitory circle", "setting": "Rhizoctonia solani Kuhn", "result": "⊚ (key: ⊚: Inhibitory circle of 4 mm or more; ◯: Inhibitory circle of less than 4 mm; X: No activity)"}, {"measurement": "Inhibitory circle", "setting": "Septoria tritici", "result": "◯ (key: ⊚: Inhibitory circle of 4 mm or more; ◯: Inhibitory circle of less than 4 mm; X: No activity)"}, {"measurement": "Inhibitory circle", "setting": "Phytophthora infestance", "result": "◯ (Inhibitory circle of less than 4 mm)"}, {"measurement": "Inhibitory circle", "setting": "Staphylococcus aureus", "result": "⊚ (key: ⊚: Inhibitory circle of 4 mm or more; ◯: Inhibitory circle of less than 4 mm; X: No activity)"}, {"measurement": "Inhibitory circle", "setting": "Escherichia coli", "result": "⊚ (key: ⊚: Inhibitory circle of 4 mm or more; ◯: Inhibitory circle of less than 4 mm; X: No activity)"}]}, {"substance": "SP4266: protein consisting of 38 amino acid residues in total represented by SEQ ID NO:8; chemically synthesized (DAELPKLPDDKVLIRSRSNCPKGKVWNGFDCKSPFAFS; Oryctes rhinoceros)", "values": [{"measurement": "Inhibitory circle", "setting": "Rhizoctonia solani", "result": "⊚ (Inhibitory circle of 4 mm or more)"}]}, {"substance": "SP4337: protein consisting of 38 amino acid residues in total represented by SEQ ID NO:9; chemically synthesized (ELPKLPDDKVLIRSRSNCPKGKVWNGFDCKSPFAFSKK; Oryctes rhinoceros)", "values": [{"measurement": "Inhibitory circle", "setting": "Rhizoctonia solani", "result": "⊚ (Inhibitory circle of 4 mm or more)"}]}, {"substance": "SP4523: protein consisting of 40 amino acid residues in total represented by SEQ ID NO:10; chemically synthesized (DAELPKLPDDKVLIRSRSNCPKGKVWNGFDCKSPFAFSKK; Oryctes rhinoceros)", "values": [{"measurement": "Inhibitory circle", "setting": "Rhizoctonia solani", "result": "⊚ (Inhibitory circle of 4 mm or more)"}]}]}
